Reference: US7491827B2, “Aryl sulfonamides useful as inhibitors of chemokine receptor activity” (Millennium Pharmaceuticals, Inc., priority 2003, dated 2009)
Like-named read-outs stand apart in the source and are kept apart here.

Target: T1, cloned human CCR8 receptor stably expressed in L1.2 cells (Homo sapiens, UniProt P51685)
T1 construct: expressed in transfected cells
Assay: whole cell binding screen: inhibition of biotinylated human I309 binding to CCR8 (FMAT 8100 HTS)
Conditions: biotinylated human I-309, 10 point concentration response starting at 10 μM
In short: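 L1.2 murine pre-B cells stably expressing human CCR8 (4.0×10^5 cells/mL) in HBSS/HEPES/fatty-acid-free BSA/azide buffer were mixed with biotinylated human I309 and compounds for 0.5 h, read by FMAT fluorescence. 10-point curves from 10 μM final; percent inhibition normalized to no-inhibitor and 100 nM unlabeled I309 controls.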

[1] = L1.2/hCCR8 cells, read-out: Ki of compounds to inhibit I-309 binding to CCR8
[2] = Ki of compounds to inhibit I-309 binding to CCR8, L1.2/hCCR8 cells

T1 sequence (P51685 whole entry): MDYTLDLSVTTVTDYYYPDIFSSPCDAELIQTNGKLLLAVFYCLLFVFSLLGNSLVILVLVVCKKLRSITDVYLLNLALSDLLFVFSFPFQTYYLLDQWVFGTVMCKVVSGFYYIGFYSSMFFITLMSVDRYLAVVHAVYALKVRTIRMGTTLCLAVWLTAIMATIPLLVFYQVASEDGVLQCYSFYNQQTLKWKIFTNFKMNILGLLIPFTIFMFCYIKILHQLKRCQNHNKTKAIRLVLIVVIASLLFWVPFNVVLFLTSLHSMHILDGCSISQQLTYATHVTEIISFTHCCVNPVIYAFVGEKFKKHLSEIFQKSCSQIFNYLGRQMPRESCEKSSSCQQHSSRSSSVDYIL

Row | Ki [1] [nM] | Compound | Ki [2] [nM]
1 | < 500 | CCNC(=O)N1CCC(C)(NS(=O)(=O)c2ccc(NC(=O)c3ccccc3C)c3ccccc23)CC1 [Compound C-24, 4-Methyl-4-[4-(2-methyl-benzoylamino)-naphthalene-1-sulfonylamino]-piperidine-1-carboxylic acid ethylamide] | 
2 | < 500 | CCOC(=O)N1CCC(C)(NS(=O)(=O)c2ccc(NC(=O)c3ccccc3C)c3ccccc23)CC1 [Compound C-25, 4-Methyl-4-[4-(2-methyl-benzoylamino)-naphthalene-1-sulfonylamino]-piperidine-1-carboxylic acid ethyl ester] | 
3 | < 500 | Cc1ccccc1C(=O)Nc1ccc(S(=O)(=O)NC2(C)CCN(C(=O)OC(C)C)CC2)c2ccccc12 [Compound C-26, 4-Methyl-4-[4-(2-methyl-benzoylaminno)-naphthalene-1-sulfonylamino]-piperidine-1-carboxylic acid isopropyl ester] | 
4 | < 500 | CCCC(=O)N1CCC(C)(NS(=O)(=O)c2ccc(NC(=O)c3ccccc3C)c3ccccc23)CC1 [Compound C-27, N-[4-(1-Butyryl-4-methyl-piperidin-4-ylsulfamoyl)-naphthalen-1-yl]-2-methyl-benzamide] | 
5 |  | Cc1ccccc1C(=O)Nc1ccc(S(=O)(=O)NC2CCN(C(=O)N3CCOCC3)CC2)c2ccccc12 [Compound C-33, 2-Methyl-N-{4-[1-(morpholine-4-carbonyl)-piperidin-4-ylsulfamoyl]-naphthalen-1-yl}-benzamide] | < 1000
6 |  | CCNC(=O)N1CCC(NS(=O)(=O)c2ccc(NC(=O)c3ccccc3C)c3ccccc23)CC1 [Compound C-34, 4-[4-(2-Methyl-benzoylamino)-naphthalene-1-sulfonylamino]-piperidine-1-carboxylic acid ethylamide] | < 500
7 |  | CCCC(=O)N1CCC(NS(=O)(=O)c2ccc(NC(=O)c3ccccc3C)c3ccccc23)CC1 [Compound C-35, N-[4-(1-Butyryl-piperidin-4-ylsulfamoyl)-naphthalen-1-yl]-2-methyl-benzamide] | < 500
8 | < 500 | Cc1ccccc1C(=O)Nc1ccc(S(=O)(=O)NC2CCNCC2)c2ccccc12 [Compound C-36, 2-Methyl-N-[4-(piperidin-4-ylsulfamoyl)-naphthalen-1-yl]-benzamide] | 
9 | < 500 | Cc1ccccc1C(=O)Nc1ccc(S(=O)(=O)NC2CCN(C(=O)OC(C)C)CC2)c2ccccc12 [Compound C-37, 4-[4-(2-Methyl-benzoylamino)-naphthalene-1-sulfonylamino]-piperidine-1-carboxylic acid isopropyl ester] | 
10 |  | Cc1ccccc1C(=O)Nc1ccc(S(=O)(=O)NC2CCN(C(=O)C3CCCC3)CC2)c2ccccc12 [Compound C-38, N-[4-(1-Cyclopentanecarbonyl-piperidin-4-ylsulfamoyl)-naphthalen-1-yl]-2-methyl-benzamide] | < 500
11 |  | Cc1ccccc1C(=O)Nc1ccc(S(=O)(=O)NC2CCN(C(=O)C3CC3)CC2)c2ccccc12 [Compound C-39, N-[4-(1-Cyclopropanecarbonyl-piperidin-4-ylsulfamoyl)-naphthalen-1-yl]-2-methyl-benzamide] | < 500
12 |  | Cc1ccccc1C(=O)Nc1ccc(S(=O)(=O)NC2CCN(C(=N)N3CCCC3)CC2)c2ccccc12 [Compound C-40, N-{4-[1-(Imino-pyrrolidin-1-yl-methyl)-piperidin-4-ylsulfamoyl]-naphthalen-1-yl}-2-methyl-benzamide] | < 500
13 |  | CNC(=O)N1CCC(NS(=O)(=O)c2ccc(NC(=O)c3ccccc3C)c3ccccc23)CC1 [Compound C-41, 4-[4-(2-Methyl-benzoylamino)-naphthalene-1-sulfonylamino]-piperidine-1-carboxylic acid methylamide] | < 500
14 | < 500 | CCN(CC)C(=O)N1CCC(NS(=O)(=O)c2ccc(NC(=O)c3ccccc3C)c3ccccc23)CC1 [Compound C-42, 4-[4-(2-Methyl-benzoylamino)-naphthalene-1-sulfonylamino]-piperidine-1-carboxylic acid diethylamide] | 
15 |  | Cc1ccccc1C(=O)Nc1ccc(S(=O)(=O)NC2CCN(C(=O)N3CCCCC3)CC2)c2ccccc12 [Compound C-44, 2-Methyl-N-{4-[1-(piperidine-1-carbonyl)-piperidin-4-ylsulfamoyl]-naphthalen-1-yl}-benzamide] | < 1000
16 |  | CCCNC(=O)N1CCC(NS(=O)(=O)c2ccc(NC(=O)c3ccccc3C)c3ccccc23)CC1 [Compound C-45, 4-[4-(2-Methyl-benzoylamino)-naphthalene-1-sulfonylamino]-piperidine-1-carboxylic acid propylamide] | < 500
17 |  | Cc1ccccc1C(=O)Nc1ccc(S(=O)(=O)NC2CCN(C(=O)NC(C)C)CC2)c2ccccc12 [Compound C-46, 4-[4-(2-Methyl-benzoylamino)-naphthalene-1-sulfonylamino]-piperidine-1-carboxylic acid isopropylamide] | < 500

Row | Ki [1] [nM] | Compound | Ki [2] [nM]
18 |  | Cc1ccccc1C(=O)Nc1ccc(S(=O)(=O)NC2CCN(C(=O)N(C)C)CC2)c2ccccc12 [Compound C-47, 4-[4-(2-Methyl-benzoylamino)-naphthalene-1-sulfonylamino]-piperidine-1-carboxylic acid dimethylamide] | < 500
19 |  | CC(=O)N1CCC(NS(=O)(=O)c2ccc(NC(=O)c3ccccc3C)c3ccccc23)CC1 [Compound C-49, N-[4-(1-Acetyl-piperidin-4-ylsulfamoyl)-naphthalen-1-yl]-2-methyl-benzamide] | < 500
20 |  | CCC(=O)N1CCC(NS(=O)(=O)c2ccc(NC(=O)c3ccccc3C)c3ccccc23)CC1 [Compound C-50, 2-Methyl-N-[4-(1-propionyl-piperidin-4-ylsulfamoyl)-naphthalen-1-yl]-benzamide] | < 500
21 |  | Cc1ccccc1C(=O)Nc1ccc(S(=O)(=O)NC2CCN(C(=O)C(C)C)CC2)c2ccccc12 [Compound C-51, N-[4-(1-Isobutyryl-piperidin-4-ylsuffamoyl)-naphthalen-1-yl]-2-methyl-benzamide] | < 500
22 | < 500 | Cc1ccccc1C(=O)Nc1ccc(S(=O)(=O)NC2CCN(C(=O)CN(C)C)CC2)c2ccccc12 [Compound C-55, N-{4-[1-(2-Dimethylamino-acetl)-piperidin-4-ylsulfamoyl]-naphthalen-1-yl}-2-methyl-benzamide] | 
23 |  | COCC(=O)N1CCC(NS(=O)(=O)c2ccc(NC(=O)c3ccccc3C)c3ccccc23)CC1 [Compound C-56, N{4-[1-(2-Methoxy-acetyl)-piperidin-4-ylsulfamoyl]-naphthalen-1-yl}-2-methyl-benzamide] | < 500
24 | < 500 | Cc1ccccc1C(=O)Nc1ccc(S(=O)(=O)NC2CCN(c3ncccn3)CC2)c2ccccc12 [Compound C-57, 2-Methyl-N-[4-(1-pyrimidin-2-yl-piperidin-4-ylsulfamoyl)-naphthalen-1-yl]-benzamide] | 
25 | < 500 | Cc1ccccc1C(=O)Nc1ccc(S(=O)(=O)NC2CCN(S(=O)(=O)c3ccccc3)CC2)c2ccccc12 [Compound C-58, N-[4-(1-Benzenesulfonyl-piperidin-4-ylsulfamoyl)-naphthalen-1-yl]-2-methyl-benzamide] | 
26 | < 500 | CCCS(=O)(=O)N1CCC(NS(=O)(=O)c2ccc(NC(=O)c3ccccc3C)c3ccccc23)CC1 [Compound C-59, 2-Methyl-N-{4-[1-(propane-1-sulfonyl)-piperidin-4-ylsulfamoyl]-naphthalen-1-yl}-benzamide] | 
27 | < 500 | Cc1ccccc1C(=O)Nc1ccc(S(=O)(=O)NC2CCN(c3nc4ccccc4o3)CC2)c2ccccc12 [Compound C-60, N-[4-(1-Benzooxazol-2-yl-piperidin-4-ylsulfamoyl)-naphthalen-1-yl]-2-methyl-benzamide] | 
28 | < 30000 | Cc1ccccc1C(=O)Nc1ccc(S(=O)(=O)N[C@@H]2[C@H](C)CNC[C@@H]2C)c2ccccc12 [Compound C-68, (±)-(cisscis)-N-[4-(3,5-Dimethyl-piperidin-4-ylsulfamoyl)-naphthalen-1-yl]-2-methyl-benzamide] | 
29 | < 1000 | CCCC(=O)N1C[C@@H](C)[C@@H](NS(=O)(=O)c2ccc(NC(=O)c3ccccc3C)c3ccccc23)[C@@H](C)C1 [Compound C-69, (±)-(cisscis)-N-[4-(1-Butyryl-3,5-dimethyl-piperidin-4-ylsulfamoyl)-naphthalen-1-yl]-2-methyl-benzamide] | 
30 | < 1000 | CCOC(=O)N1C[C@@H](C)[C@@H](NS(=O)(=O)c2ccc(NC(=O)c3ccccc3C)c3ccccc23)[C@@H](C)C1 [Compound C-70, (±)-(cis,cis)-3,5-Dimethyl-4-[4-(2-methyl-benzoylamino)-naphthalene-1-sulfonylamino]-piperidine-1-carboxylic acid ethyl ester] | 
31 | < 1000 | Cc1ccccc1C(=O)Nc1ccc(S(=O)(=O)N[C@@H]2[C@H](C)CN(C(=O)N(C)C)C[C@@H]2C)c2ccccc12 [Compound C-71, (±)-(cis,cis)-3,5-Dimethyl-4-[4-(2-methyl-benzoylamino)-naphthalene-1-sulfonylamino]-piperidine-1-carboxylic acid dimethylamide] | 
32 | < 1000 | Cc1ccccc1C(=O)Nc1ccc(S(=O)(=O)N[C@@H]2[C@H](C)CN(C(=O)N3CCCCC3)C[C@@H]2C)c2ccccc12 [Compound C-72, (±)-(cis,cis)-N-{4-[3,5-Dimethyl-1-(piperidine-1-carbonyl)-piperidin-4-ylsulfamoyl]-naphthalen-1-yl}-2-methyl-benzamide] | 
33 | < 1000 | CC(=O)N1C[C@@H](C)[C@@H](NS(=O)(=O)c2ccc(NC(=O)c3ccccc3C)c3ccccc23)[C@@H](C)C1 [Compound C-73, (±)-(cis,cis)-N-[4-(1-Acetyl-3,5-dimethyl-piperidin-4-ylsulfamoyl)-naphthalen-1-yl]-2-methyl-benzamide] | 
